# Assay results: US20230183193A1, “4-DIFLUOROMETHYL BENZOYL AMIDES WITH HERBICIDAL ACTION” (BAYER CROPSCIENCE AKTIENGESELLSCHAFT, priority 2017, published 2023)
# Assays:
# [1] = test system: Avena fatua; assay: Pre-emergence herbicidal action, AVEFA; type: in vivo; details: for herbicidal activity AVEFA: dosage 320 g/ha, scored visually after 3 weeks vs untreated controls
# In short: (§1)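 Weed seeds were laid out in sandy loam and covered with soil, then the soil surface was treated with an aqueous suspension or emulsion of the formulated compound containing 0.2% wetting agent. Pots stayed in the greenhouse for 3 weeks before damage was rated visually against untreated plants.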
# [2] = test system: ECHCG; assay: Pre-emergence herbicidal action, ECHCG; type: in vivo, Echinochloa crus-galli
# [3] = test system: ECHCG; assay: Post-emergence herbicidal action, ECHCG; type: in vivo; details: 80 g/ha, Table C
# In short: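 Weed and crop plants grown in sandy loam in the greenhouse, treated at the one-leaf stage 2–3 weeks after sowing. Damage scored visually after about 3 weeks vs untreated controls (0% = control, 100% = dead).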
# [4] = test system: Viola tricolor; assay: Pre-emergence herbicidal action, VIOTR; type: in vivo; details: for Herbicidal efficacy against VIOTR: Table K; for herbicidal activity VIOTR: dosage 320 g/ha, scored visually after 3 weeks vs untreated controls
# In short: as §1
# [5] = test system: Alopecurus myosuroides; assay: Post-emergence herbicidal action, ALOMY; type: in vivo; details: for herbicidal activity ALOMY: Table C
# In short: (§2)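 Greenhouse-grown plants were sprayed at the one-leaf stage, 2–3 weeks after sowing. Damage was scored visually after about 3 weeks against untreated controls, as % action (100% = dead, 0% = like control).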
# [6] = test system: Viola tricolor; assay: Post-emergence herbicidal action, VIOTR; type: in vivo; details: for herbicidal activity VIOTR: Table D
# In short: as §2
# [7] = test system: Pharbitis purpureum; assay: Post-emergence herbicidal action, PHBPU; type: in vivo; details: 80 g/ha, Table D
# In short: as §2
# [8] = test system: Polygonum convolvulus; assay: Pre-emergence herbicidal action, POLCO; type: in vivo; details: Table K
# Source text: 1. Pre-Emergence Herbicidal Action Against Harmful Plants Seeds of monocotyledonous and dicotyledonous weed plants and crop plants are laid out in sandy loam soil in wood-fiber pots and covered with soil. The compounds of the invention, formulated in the form of wettable powders (WP) or as emulsion concentrates (EC), are then applied to the surface of the covering soil in the form of an aqueous suspension or emulsion at a water application rate equating to […], with addition of 0.2% wetting agent. After the treatment, the pots are placed in a greenhouse and kept under good growth conditions for the trial plants. The damage to the test plants is scored visually after a test period of 3 weeks by comparison with untreated controls (herbicidal activity in percent (%): 100% activity=the plants have died, 0% activity=like control plants).
# For comparison, the herbicidal activity of numerous compounds according to the invention was tested with the structurally closest compounds known from the documents WO 2011/035874, WO 2012/028579 and WO 2012/126932, by the pre- and post-emergence method.
# [9] = test system: Abutilon theophrasti; assay: Pre-emergence herbicidal action, ABUTH; type: in vivo; details: for Herbicidal efficacy against ABUTH: Table K; for herbicidal activity ABUTH: dosage 320 g/ha, scored visually after 3 weeks vs untreated controls
# In short: as §1
# [10] = test system: Stellaria media; assay: Pre-emergence herbicidal action, STEME; type: in vivo; details: dosage 320 g/ha, scored visually after 3 weeks vs untreated controls
# In short: as §1
# [11] = test system: Setaria viridis; assay: Pre-emergence herbicidal action, SETVI; type: in vivo; details: for herbicidal activity SETVI: dosage 320 g/ha, scored visually after 3 weeks vs untreated controls
# In short: as §1
# [12] = test system: Amaranthus retroflexus; assay: Pre-emergence herbicidal action, AMARE; type: in vivo; details: dosage 320 g/ha, scored visually after 3 weeks vs untreated controls
# In short: as §1
# [13] = test system: Avena fatua; assay: Post-emergence herbicidal action, AVEFA; type: in vivo; details: for herbicidal activity AVEFA: Table C
# In short: as §2
# [14] = test system: Setaria viridis; assay: Post-emergence herbicidal action, SETVI; type: in vivo; details: for herbicidal activity SETVI: Table C
# In short: as §2
# [15] = test system: Cyperus serotinus; assay: Pre-emergence herbicidal action, CYPES; type: in vivo; details: for herbicidal activity CYPES: dosage 320 g/ha, scored visually after 3 weeks vs untreated controls
# In short: as §1
# [16] = test system: Amaranthus retroflexus; assay: Post-emergence herbicidal action, AMARE; type: in vivo; details: 80 g/ha, Table D
# In short: as §2
# [17] = test system: Matricaria inodora; assay: Pre-emergence herbicidal action, MATIN; type: in vivo; details: for Herbicidal efficacy against MATIN: Table K; for herbicidal activity MATIN: dosage 320 g/ha, scored visually after 3 weeks vs untreated controls
# In short: as §1
# [18] = test system: Abutilon theophrasti; assay: Post-emergence herbicidal action, ABUTH; type: in vivo; details: 80 g/ha, Table D
# In short: as §2
# [19] = test system: Stellaria media; assay: Post-emergence herbicidal action, STEME; type: in vivo; details: for Herbicidal activity STEME: Table D
# In short: as §2
# [20] = test system: Alopecurus myosuroides; assay: Pre-emergence herbicidal action, ALOMY; type: in vivo; details: for herbicidal activity ALOMY: dosage 320 g/ha, scored visually after 3 weeks vs untreated controls
# In short: as §1
smiles,measurement,setting,value
CSc1c(C(F)F)ccc(C(=O)Nc2nnnn2C)c1Cl [Example 1-49],Herbicidal efficacy against AVEFA,[1]; 20 g/ha,50
same,Herbicidal efficacy against AVEFA,[1]; 80 g/ha,80
same,herbicidal activity AVEFA,[1],100%
same,Herbicidal efficacy against ECHCG,[2]; 20 g/ha,50
same,Herbicidal efficacy against ECHCG,[2]; 80 g/ha,100
same,Herbicidal activity ECHCG,[3],80%
same,Herbicidal efficacy against VIOTR,[4]; dosage 20 g/ha,100
same,Herbicidal efficacy against VIOTR,[4]; dosage 80 g/ha,100
same,herbicidal activity VIOTR,[4],100%
same,Herbicidal efficacy against ALOMY,[5]; 5 g/ha,60
same,herbicidal activity ALOMY,[5]; 80 g/ha,90%
same,Herbicidal efficacy against VIOTR,[6]; 5 g/ha,100
same,herbicidal activity VIOTR,[6]; 80 g/ha,100%
same,Herbicidal activity PHBPU,[7],90%
same,Herbicidal efficacy against POLCO,[8]; dosage 80 g/ha,50
same,Herbicidal efficacy against ABUTH,[9]; dosage 20 g/ha,70
same,Herbicidal efficacy against ABUTH,[9]; dosage 80 g/ha,100
same,herbicidal activity ABUTH,[9],100%
same,Herbicidal activity STEME,[10],90%
same,Herbicidal efficacy against SETVI,[11]; 20 g/ha,90
same,herbicidal activity SETVI,[11],100%
same,herbicidal activity AMARE,[12],100%
same,Herbicidal efficacy against AVEFA,[13]; 5 g/ha,50
same,herbicidal activity AVEFA,[13]; 80 g/ha,100%
same,Herbicidal efficacy against SETVI,[14]; 5 g/ha,80
same,herbicidal activity SETVI,[14]; 80 g/ha,90%
same,Herbicidal efficacy against CYPES,[15]; 20 g/ha,50
same,Herbicidal efficacy against CYPES,[15]; 80 g/ha,70
same,herbicidal activity CYPES,[15],90%
same,herbicidal activity AMARE,[16],80%
same,Herbicidal efficacy against MATIN,[17]; dosage 20 g/ha,80
same,herbicidal activity MATIN,[17],100%
same,herbicidal activity ABUTH,[18],90%
same,Herbicidal efficacy against STEME,[19]; 5 g/ha,70
same,Herbicidal activity STEME,[19]; 80 g/ha,100%
same,Herbicidal efficacy against ALOMY,[20]; 20 g/ha,40
same,Herbicidal efficacy against ALOMY,[20]; 80 g/ha,90
same,herbicidal activity ALOMY,[20],100%
CSc1c(C(F)F)ccc(C(=O)Nc2nnnn2C)c1C [Example 1-1],Herbicidal efficacy against AVEFA,[1]; 80 g/ha,90
same,herbicidal activity AVEFA,[1],100%
same,Herbicidal efficacy against ECHCG,[2]; 20 g/ha,80
same,Herbicidal efficacy against ECHCG,[2]; 80 g/ha,100
same,Herbicidal activity ECHCG,[3],100%
same,Herbicidal efficacy against VIOTR,[4]; dosage 20 g/ha,100
same,Herbicidal efficacy against VIOTR,[4]; dosage 80 g/ha,100
same,herbicidal activity VIOTR,[4],100%
same,Herbicidal efficacy against ALOMY,[5]; 5 g/ha,60
same,Herbicidal efficacy against ALOMY,[5]; 20 g/ha,90
same,Herbicidal efficacy against ALOMY,[5]; 80 g/ha,90
same,herbicidal activity ALOMY,[5]; 80 g/ha,90%
same,Herbicidal efficacy against VIOTR,[6]; 5 g/ha,100
same,Herbicidal efficacy against VIOTR,[6]; 20 g/ha,100
same,Herbicidal efficacy against VIOTR,[6]; 80 g/ha,100
same,herbicidal activity VIOTR,[6]; 80 g/ha,100%
same,Herbicidal activity PHBPU,[7],90%
same,Herbicidal efficacy against POLCO,[8]; dosage 20 g/ha,60
same,Herbicidal efficacy against POLCO,[8]; dosage 80 g/ha,70
same,Herbicidal efficacy against ABUTH,[9]; dosage 20 g/ha,90
same,Herbicidal efficacy against ABUTH,[9]; dosage 80 g/ha,100
same,herbicidal activity ABUTH,[9],100%
same,Herbicidal activity STEME,[10],100%
same,Herbicidal efficacy against SETVI,[11]; 20 g/ha,70
same,Herbicidal efficacy against SETVI,[11]; 80 g/ha,100
same,herbicidal activity SETVI,[11],100%
same,herbicidal activity AMARE,[12],100%
same,Herbicidal efficacy against AVEFA,[13]; 5 g/ha,40
same,Herbicidal efficacy against AVEFA,[13]; 20 g/ha,90
same,Herbicidal efficacy against AVEFA,[13]; 80 g/ha,100
same,herbicidal activity AVEFA,[13]; 80 g/ha,100%
same,Herbicidal efficacy against SETVI,[14]; 5 g/ha,100
same,Herbicidal efficacy against SETVI,[14]; 20 g/ha,100
same,Herbicidal efficacy against SETVI,[14]; 80 g/ha,100
same,herbicidal activity SETVI,[14]; 80 g/ha,100%
same,Herbicidal efficacy against CYPES,[15]; 20 g/ha,30
same,Herbicidal efficacy against CYPES,[15]; 80 g/ha,70
same,herbicidal activity CYPES,[15],80%
same,herbicidal activity AMARE,[16],100%
same,Herbicidal efficacy against MATIN,[17]; dosage 20 g/ha,70
same,Herbicidal efficacy against MATIN,[17]; dosage 80 g/ha,90
same,herbicidal activity MATIN,[17],100%
same,herbicidal activity ABUTH,[18],100%
same,Herbicidal efficacy against STEME,[19]; 5 g/ha,100
same,Herbicidal efficacy against STEME,[19]; 20 g/ha,100
same,Herbicidal efficacy against STEME,[19]; 80 g/ha,100
same,Herbicidal activity STEME,[19]; 80 g/ha,100%
same,Herbicidal efficacy against ALOMY,[20]; 20 g/ha,90
same,Herbicidal efficacy against ALOMY,[20]; 80 g/ha,90
same,herbicidal activity ALOMY,[20],100%
